The values that follow come from PubChem BioAssay AID1645848.

≈ marks a conversion by molar mass, not a printed value.

The kinetic solubility is solubility judged after dilution from a stock solution rather than from solid.

For the data set the following is noted: buffer; pH 7.4; 6.0 h; 150.0 µM.
`O=C(Nc1nc(-c2ccc(F)cc2)cs1)c1ccncc1NS(=O)(=O)c1ccccc1Cl` returned a kinetic solubility of less than 1 µg/mL.
With `CCOc1cc(=O)n2c(c1C(=O)Nc1cc(OC)c(Cl)cc1OC)CCCC2` the figure was greater than 60 µg/mL; with `CCOC(=O)C1CCN(C(=O)C2(NC(=O)Nc3ccccc3Cl)CCC2)CC1`, 43.2 µg/mL (≈ 106 µM).
Compound `CC(=O)N1CCN(c2ccc(OCc3nn(C)c(C)c3-c3cccc4c(CCCOc5cc(C)c(Cl)c(C)c5)c(C(=O)O)n(Cc5cccnc5)c34)cc2)CC1` showed a solubility (kinetic) greater than 100 µg/mL.
Consider `COc1cccc(CNc2ccc(S(=O)(=O)Nc3ccccc3)cc2)c1O`, for which the kinetic solubility is less than 1 µg/mL.
The compound `COc1ccc2[nH]cc(CCNC(=O)c3cnn(-c4ccc(C)cc4)c3C3CCN(C(=O)OC(C)(C)C)CC3)c2c1` showed a kinetic solubility of 1.56 µg/mL (≈ 2.8 µM).
The figure for `Cc1ccnc(NC(=S)N2CCCC(Nc3cccc(C(F)(F)F)c3)C2)c1` (stereo unspecified) is 11.6 µg/mL (≈ 29.5 µM); for `Cc1cc(F)ccc1S(=O)(=O)Nc1cnccc1C(=O)Nc1nc(-c2ccccc2)cs1` it is 34.6 µg/mL (≈ 73.9 µM).
In turn, `COc1ccc2c(c1)/C(=C/c1cnc[nH]1)C(=O)N2` gave a kinetic solubility greater than 36 µg/mL.
For the compound `CC(=O)c1ccc(N[S+](=O)([O-])c2cccc(NC(=O)c3[nH]c(C)c(C(C)=O)c3C)c2)cc1`, the solubility (kinetic) came to 21.3 µg/mL (≈ 47 µM).
`CCOc1ccc(CCNC(=O)c2cccc(C(=O)c3ccccc3)c2)cc1OCC`: the solubility (kinetic) was 3.12 µg/mL (≈ 7.47 µM).
Regarding `Cc1ccc(-c2cc(C(=O)Nc3ccc(S(=O)(=O)Nc4ccc(C#N)cc4)cc3)c3ccccc3n2)cc1C`, the solubility (kinetic) stood at 3.79 µg/mL (≈ 7.12 µM).
The figure for `COc1ccccc1NS(=O)(=O)c1cccc(NC(=O)c2[nH]c(C)c(C(C)=O)c2C)c1` is 15.2 µg/mL (≈ 34.4 µM).
Compound `O=C1CCCC2=C1C1(CCCC1)N=C(Nc1nc3cc(Cl)ccc3o1)N2` yielded a kinetic solubility of less than 1 µg/mL.
On to `CCOc1ccc(NC(=O)c2cccc(-n3cccc3)c2)cc1S(=O)(=O)N1CCOCC1`, for which the solubility (kinetic) worked out at 3 µg/mL (≈ 6.59 µM).
In turn, `O=C(CCCN1CCC2(CC1)C(=O)N(Cc1cccc(F)c1)CN2c1ccccc1)c1ccc(F)cc1` gave a kinetic solubility of 4.23 µg/mL (≈ 8.41 µM).
Turning to `Cn1c(=O)c2cc(C(=O)NCCCN3CCN(c4ccccc4F)CC3)sc2c2ccccc21`, the solubility (kinetic) is less than 1 µg/mL.
`Fc1cc(Nc2nc(-c3ccncc3)nc3ccccc23)ccc1C(F)(F)F` showed a kinetic solubility of less than 1 µg/mL.
The figure for `O=C1CCCC2=C1C(c1ncccc1Br)N=C(Nc1nc3ccccc3o1)N2` (stereo unspecified) is 7.87 µg/mL (≈ 17.9 µM).
The figure for `CCN1CCN(CCCOc2ccc(-c3ccccc3)cc2)CC1` is greater than 48 µg/mL.
Turning to `CN(C)C(=O)c1nc(-c2ccc(Cl)cc2Cl)c2cnccn12`, the kinetic solubility is greater than 59 µg/mL.
In the case of `CS(=O)(=O)c1ccc2nc(NC(=O)C3CC3)sc2c1`, the solubility (kinetic) was 22.7 µg/mL (≈ 76.7 µM).
The figure for `COc1nccc(-c2nc(Nc3ccc(F)c(F)c3)c3ccccc3n2)c1OC` is less than 1 µg/mL; for `CCOc1ccccc1C(=O)Nc1ccccc1C(=O)Nc1cccc(S(=O)(=O)C(F)(F)F)c1` it is 1.57 µg/mL (≈ 3.18 µM); for `O=C(NC1CCCc2c1cnn2-c1ccc(O)cc1)c1ccccn1` (stereo unspecified) it is 40.8 µg/mL (≈ 122 µM).
Take `Fc1ccc(N2CCCN(CC3[C@H]4CNC[C@@H]34)CC2)cc1` (stereo partly specified): the solubility (kinetic) is greater than 43 µg/mL.
With `Cc1ccccc1C(=O)N1CCc2cc(-c3csc(NC(=O)Cc4ccc5c(c4)OCO5)n3)ccc21` the figure was less than 1 µg/mL; with `Fc1cnc(-c2ccccc2C(F)F)nc1NCc1ccc(-n2ccnn2)cc1`, less than 1 µg/mL.
The figure for `CC(=O)N1CCc2c(sc3c2c(=O)n(-c2ccccc2)c(=O)n3CC(=O)c2ccccc2)C1` is 3.53 µg/mL (≈ 7.69 µM); for `Fc1cc(Nc2nc(-c3ccncc3)nc3ccccc23)ccc1N1CCCCC1` it is less than 1 µg/mL; for `COc1ccc(OC)c(-c2nc3c(C#N)c[nH]n3c2NC2CCCCC2)c1` it is 12.2 µg/mL (≈ 33.5 µM).
Take `COc1ccc(C2=Nc3ccc(C)cc3C(c3ccccc3)N2CC(=O)NN)cc1` (stereo unspecified): the solubility (kinetic) is greater than 59 µg/mL.
Regarding `CCOc1ccc(CCNC(=O)c2cc3sccc3n2Cc2ccc(-n3cncn3)cc2)cc1OCC`, the kinetic solubility is less than 1 µg/mL.
In the case of `Fc1cc(Nc2nc(-c3ccncc3)nc3ccccc23)ccc1N1CCNCC1`, the kinetic solubility is 4.02 µg/mL (≈ 10 µM).
`O=C(Nc1ccc(S(=O)(=O)Nc2nccs2)cc1)c1cc(-c2ccccc2)nc2ccccc12` yielded a solubility (kinetic) of 0.098 µg/mL (≈ 0.201 µM).
The figure for `COc1cccc(C(=O)Nc2nnc(S(=O)(=O)N3CCOCC3)s2)c1` is greater than 57 µg/mL; for `COc1ccc(-c2noc(CSc3nnc(Cc4ccccc4)n3-c3ccc(F)cc3)n2)cc1` it is less than 1 µg/mL; for `CN1CCN(C(=O)Cc2c[nH]c3ncc(-c4ccccc4Oc4ccccc4)cc23)CC1` it is greater than 42 µg/mL.
The compound `COc1ccccc1Nc1ccnc(N2CCN(C(=O)c3ccc(C)cc3)CC2)n1` gave a kinetic solubility of 2.64 µg/mL (≈ 6.54 µM).
Consider `Cc1cccc([C@H]2[C@@H]3C=CC[C@@H](C)[C@@H]3C(=O)N2Cc2ccccc2)c1`, for which the solubility (kinetic) is less than 1 µg/mL.
`O=C(Nc1nc(-c2ccccc2)cs1)c1ccncc1NS(=O)(=O)c1cccs1` showed a kinetic solubility of less than 1 µg/mL.
`Cc1ccc2oc(NC3=NC4(CCCC4)C4=C(CCCC4=O)N3)nc2c1` had a solubility (kinetic) of less than 1 µg/mL.
Take `COc1ccc(CN2CCNc3cc(Nc4ccccc4)ncc3C2)cn1`: the solubility (kinetic) worked out at 31.1 µg/mL (≈ 86 µM).
Compound `CCOc1ccc(/C=C/c2nc3ccccc3n2S(=O)(=O)c2cccc(Cl)c2)cc1` gave a solubility (kinetic) of 0.035 µg/mL (≈ 0.0797 µM).
For `Cc1ccc(-n2nc(C)c3c(-c4ccc(O)c(O)c4)c(C#N)c(N)nc32)cc1C`, the solubility (kinetic) was 1.81 µg/mL (≈ 4.7 µM).
In turn, `COc1cccc(NCCC2(c3ccccc3)CC(C)(C)OC(C)(C)C2)c1` returned a solubility (kinetic) of less than 1 µg/mL.
`COc1cncc(Nc2ncc(-c3cccc(N(C)C)c3)c3c2OCC3)c1` came in with a kinetic solubility of less than 1 µg/mL.
For `CC[C@H]1CN2CCC3CC(OC)C(OC)CC3[C@@H]2C[C@@H]1C[C@H]1NCCC2=C1CC(OC)=C(O)C2` (stereo partly specified), the solubility (kinetic) was determined as 44.6 µg/mL (≈ 93.9 µM).
Compound `NC1CCN(C(=O)C2CCCN(c3nc(-c4ccccc4)nc4c3CCC4)C2)CC1` (stereo unspecified) yielded a solubility (kinetic) greater than 40 µg/mL.
`COc1ccc(CCN2C(=O)N(c3ccc(F)cc3)C(=O)C2CC(=O)Nc2ccc(F)c(F)c2)cc1` (stereo unspecified) displayed a kinetic solubility of 9.71 µg/mL (≈ 19.5 µM).
For `CCN(CC)CCOc1ccc2c(=O)c3ccc(Cl)cc3n(CCN(CC)CC)c2c1`, the solubility (kinetic) is greater than 66 µg/mL.
As to `O=C1Nc2ccc(C(=O)c3ccco3)cc2/C1=C/c1cc(Cl)c(O)c(Cl)c1`, the solubility (kinetic) came out at 9.16 µg/mL (≈ 22.9 µM).
For the compound `O=C(O)Cn1c(C(=O)Nc2nc(-c3ccccc3Cl)cs2)cc2ccccc21`, the kinetic solubility is greater than 61 µg/mL.
Turning to `COc1cccc(CNc2ccc([S+](=O)([O-])Nc3cc4ccccc4s3)cc2)c1O`, the solubility (kinetic) was less than 1 µg/mL.
`CC(C)(C)OC(=O)N[C@@H](Cc1ccc(O[S+](=O)([O-])c2cccc3cnccc23)cc1)C(=O)Nc1ccc(-c2ccccc2)cc1`: the kinetic solubility is less than 1 µg/mL.
The compound `COc1ccc(-c2ccc3nc(-c4ccccc4C)oc3c2)c(OC)c1OC` gave a solubility (kinetic) of less than 1 µg/mL.
With `Fc1cccc(Nc2nc(-c3ccncc3)nc3ccccc23)c1F`, the solubility (kinetic) was less than 1 µg/mL.
Turning to `NC(=O)C1CCN(c2nc(-c3ccccc3N)cs2)CC1`, the solubility (kinetic) turned out to be 29.4 µg/mL (≈ 97.1 µM).
`Cc1ccc(N2CCC(CNc3nc(-c4ccccc4C(C)C)ncc3C)CC2)cn1` returned a solubility (kinetic) of 19.8 µg/mL (≈ 47.7 µM).
As to `O=C1Nc2ccccc2/C1=C\c1ccc([N+](=O)[O-])cc1`, the solubility (kinetic) is less than 1 µg/mL.
Compound `Fc1cnc(-c2ccccc2C(F)F)nc1NCc1ccc(-c2ccn[nH]2)cc1` returned a solubility (kinetic) of less than 1 µg/mL.
In the case of `COc1cc(C2c3c(oc4cc(C)c(C)cc4c3=O)C(=O)N2CCCN2CCOCC2)ccc1O` (stereo unspecified), the kinetic solubility is greater than 71 µg/mL.
The compound `O=[S+]([O-])(Nc1ccccc1)c1ccc(NCc2cccc(C(F)(F)F)c2F)cc1` came in with a solubility (kinetic) of 1.11 µg/mL (≈ 2.62 µM).
Compound `Cc1cc(Nc2ccc(Br)c(C)c2)n2nc(C)nc2n1` returned a solubility (kinetic) of 30.9 µg/mL (≈ 93 µM).
Consider `C[C@H]1CN(C(=O)Nc2ccc(F)cc2F)C[C@@H]1c1nc(-c2ccccc2)no1`, for which the solubility (kinetic) came to 19.3 µg/mL (≈ 50.3 µM).
The figure for `Cc1nc(N)nc2ccccc12` is greater than 24 µg/mL.
With `O=C1Nc2ccccc2C1Cc1cc(Cl)c(O)c(Cl)c1` (stereo unspecified) the figure was greater than 45 µg/mL; with `Cc1ccc(C(=O)Nc2nc3nc(-c4ccccc4)cc(=O)n3[nH]2)cc1`, 2.64 µg/mL (≈ 7.65 µM); with `NC(=O)C1CCN(c2nc(-c3ccccc3Cl)cs2)CC1`, greater than 47 µg/mL.
The compound `CC1(C)CCC(CN2CCN(c3ccc(C(=O)NS(=O)(=O)c4ccc(NCC5CCOCC5)c([N+](=O)[O-])c4)c(Oc4cnc5[nH]ccc5c4)c3)CC2)=C(c2ccc(Cl)cc2)C1` yielded a solubility (kinetic) of less than 1 µg/mL.
The figure for `NC(=O)COc1ccc(C2CC(=O)Nc3n[nH]c(Nc4ccccc4)c32)cc1` (stereo unspecified) is 41.7 µg/mL (≈ 110 µM).
On to `Cn1cc2c3c(cccc31)CN(C(=O)c1ccc(F)c(Cl)c1)CC2`, for which the solubility (kinetic) is less than 1 µg/mL.
The compound `CCCC1=Nc2cc(C(=O)NC3CCCCC3)ccc2Sc2ccc(C)cc21` came in with a solubility (kinetic) of 1.37 µg/mL (≈ 3.48 µM).
The compound `Cc1ccc(-n2nc3c(N4CCCC(C(=O)NCc5ccccc5C)C4)nnc(C)c3c2C)cc1` (stereo unspecified) returned a kinetic solubility of less than 1 µg/mL.
Consider `Cc1nn2c(c1-c1ccccc1Oc1ccccc1)N(Cc1ccccc1O)CCC2`, for which the kinetic solubility is 13.9 µg/mL (≈ 33.8 µM).
In turn, `Cc1ccc(S(=O)(=O)Nc2cc(C(=O)Nc3nc(-c4ccccc4)cs3)ccc2Cl)cc1` registered a solubility (kinetic) of less than 1 µg/mL.
With `NC(=O)C(=O)N/N=C/c1ccc([N+](=O)[O-])o1` the figure was greater than 33 µg/mL; with `COc1ccc(-n2nc(C3CCCN(C(=O)c4ccccc4F)C3)[nH]c2=O)cc1` (stereo unspecified), 37.3 µg/mL (≈ 94.1 µM).
Compound `CC(Nc1ncnc2c1cnn2-c1cccc(Cl)c1)c1ccccc1` (stereo unspecified) showed a kinetic solubility of less than 1 µg/mL.
The compound `COc1cccc(C(=O)Nc2cccc(OCc3cc(=O)n4cccc(C)c4n3)c2)c1` showed a solubility (kinetic) of less than 1 µg/mL.
As for `COC(=O)c1ccc(NC(=O)c2nc3ccccc3n(C)c2=O)cc1`, the solubility (kinetic) is less than 1 µg/mL.
With `COc1ccc(-c2csc(NC(=O)c3ccncc3NS(=O)(=O)c3ccc(C)cc3)n2)cc1` the figure was 54.8 µg/mL (≈ 114 µM).
With `Fc1ccccc1Nc1nc(-c2ccncc2)nc2ccccc12` the figure was less than 1 µg/mL; with `O=C(NC1CCCc2c1[nH]c1ccccc21)c1ccccc1` (stereo unspecified), 7.97 µg/mL (≈ 27.4 µM).
With `CC(C)Oc1ccc(C(=O)Nc2ccc3c(c2)CCCN3C(=O)c2cccs2)cc1`, the kinetic solubility is less than 1 µg/mL.
As to `CN1CCN(c2ccc(Nc3nc(-c4ccncc4)nc4ccccc34)cc2F)CC1`, the solubility (kinetic) was found to be 18.7 µg/mL (≈ 45.1 µM).
